Values of other authors, collected in patent US8906391B2, “Thermorod for active drug release and method for manufacturing the same” (Korea Sangsa Co., Ltd., priority 2008, dated 2014).

Details: characteristics of the drugs, Table 1

Hydrophobicity (Log P) | SMILES
5.029 | CC(=O)O[C@H]1C(=O)[C@@]2(C)[C@H]([C@H](OC(=O)c3ccccc3)[C@]3(O)C[C@H](OC(=O)[C@H](O)[C@@H](NC(=O)c4ccccc4)c4ccccc4)C(C)=C1C3(C)C)[C@]1(OC(C)=O)CO[C@@H]1C[C@@H]2O [Paclitaxel]
3.06 | CC[C@H]1OC(=O)[C@H](C)[C@@H](O[C@H]2C[C@@](C)(OC)[C@@H](O)[C@H](C)O2)[C@H](C)[C@@H](O[C@@H]2O[C@H](C)C[C@H](N(C)C)[C@H]2O)[C@](C)(O)C[C@@H](C)C(=O)[C@H](C)[C@@H](O)[C@]1(C)O [Erythromycin]
0.917 | CC(=O)Nc1ccc(O)cc1 [Acetaminophen]
4.258 | CC(=O)O[C@@]12CO[C@@H]1C[C@H](O)[C@@]1(C)C(=O)[C@H](O)C3=C(C)[C@@H](OC(=O)[C@H](O)[C@@H](NC(=O)OC(C)(C)C)c4ccccc4)C[C@@](O)([C@@H](OC(=O)c4ccccc4)[C@H]21)C3(C)C [Docetaxel]
